Structures can show the parent of a compound that is named as a salt. Where two headings read alike, the source gives them in different places.

The values below come from patent US6479515B1, “Heterocyclic benzenesulphonamide compounds as bradykinine antagonists” (Fournier Industrie et Sante, priority 1999, dated 2002).

One assay deals with T1, human B2 receptor (Homo sapiens, UniProt P30411).
T1 construct: expressed in transfected cells; host or cells: CHO cells (membranes)
T1 sequence (P30411 1-391): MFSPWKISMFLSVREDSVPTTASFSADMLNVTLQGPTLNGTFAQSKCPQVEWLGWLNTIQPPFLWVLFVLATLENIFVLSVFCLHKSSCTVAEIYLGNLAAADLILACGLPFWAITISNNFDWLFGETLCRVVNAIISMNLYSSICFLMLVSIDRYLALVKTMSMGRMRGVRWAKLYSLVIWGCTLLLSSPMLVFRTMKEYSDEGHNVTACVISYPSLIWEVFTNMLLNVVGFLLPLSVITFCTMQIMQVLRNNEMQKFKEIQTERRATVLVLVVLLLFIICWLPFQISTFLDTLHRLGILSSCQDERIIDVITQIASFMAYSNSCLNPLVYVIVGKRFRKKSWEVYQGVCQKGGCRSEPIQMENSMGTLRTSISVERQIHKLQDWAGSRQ
Briefly: competitive binding test on CHO cell membranes expressing the human B2 receptor using [3H]-bradykinin as ligand. How it is done: The activity of the products according to the invention was evaluated, according to a first aspect, as a function of their aptitude to bind to the bradykinin B2 receptors. […] It is likewise known that bradykinin is amongst one of the most powerful algesic agents known. The mode of action of kinins and more particularly of bradykinin makes a coupling of the peptides to the two types of receptors called B1 and B2 respectively take place. The B2 receptor belongs to the large family of receptors with seven transmembrane domains coupled to the G proteins and seems to be more particularly involved in the field of the pathologies mentioned above. This is the reason why the products of the invention, which have the property of being able to bind to the B2 receptor, inhibit the binding of bradykinin and, consequently, suppress its harmful activity. The test employed in order to measure this property is a competitive binding test on CHO cell membranes expressing the human B2 receptor using bradykinin labelled with tritium ([^3H]-bradykinin) as ligand.
The results are expressed by the Ki value, as calculated according to the recommended method with the description of the test employed and described according to D. Pruneau et al., in Br. J. Pharmacol. 1998, 125 p 365-372.

A further assay has as its target T2, bradykinin B2 receptor (Homo sapiens, UniProt P30411).
T2 construct: from tissue; host or cells: isolated human umbilical vein
T2 sequence (P30411 1-391): T1 sequence (P30411 1-391)
Kind of assay: inhibition of the contraction of the isolated human umbilical vein in the presence of bradykinin. Format: cell-based. The text has this: This antagonist character is expressed by the value pA2, calculated according to a biological test employed in order to measure the inhibition of the contraction of the isolated human umbilical vein by the compounds according to the invention in the presence of bradykinin. The test procedure and the method of calculation of pA2 are described in the articles of D. Pruneau et al. published in Br. J. Pharmacol. 1998, 125, p 365-372 and J L. Paquet et al. Br. J. Pharmacol. 1999, 126 (in print).

The mark [1] stands for this setting: isolated human umbilical vein, contraction in the presence of bradykinin, read-out: pA2 (converted).

As for `Cc1cc(-n2ccnc2)c2cccc(OCc3c(Cl)ccc(S(=O)(=O)N4CCC[C@H]4C(=O)N(C)CCN(C)CCCO)c3Cl)c2n1` [Example 101, 1-[[2,4-Dichloro-3-[[[4-(1H-imidazol-1-yl)-2-methyl-8-quinolinyl]oxy]methyl]-phenyl]sulphonyl]-N-methyl-N-[2-[[3-(hydroxy)propyl](methyl)amino]ethyl]-2(S)-pyrrolidinecarboxamide, methanesulphonate], the Ki on human B2 receptor turned out to be 50 nM. Further, the Kb on bradykinin B2 receptor (setting [1]) was 3.98 nM.
For `Cc1cc(-n2ccnc2)c2cccc(OCc3c(Cl)ccc(S(=O)(=O)N4CCC[C@H]4C(=O)N(C)CCN(C)CCCCO)c3Cl)c2n1` [Example 103, 1-[[2,4-Dichloro-3-[[[4-(1H-imidazol-1-yl)-2-methyl-8-quinolinyl]oxy]methyl]-phenyl]sulphonyl]-N-methyl-N-[2-[[4-(hydroxy)butyl](methyl)amino]ethyl]-2(S)-pyrrolidinecarboxamide, methanesulphonate], in that order: 21 nM and 12.6 nM.
In turn, `Cc1cc(-n2ccnc2)c2cccc(OCc3c(Cl)ccc(S(=O)(=O)N4CCC[C@H]4C(=O)NCC4CCN(Cc5ccccn5)CC4)c3Cl)c2n1` [Example 109, 1-[[2,4-Dichloro-3-[[[4-(1H-imidazol-1-yl)-2-methyl-8-quinolinyl]oxy]methyl]-phenyl]sulphonyl]-N-[[1-(2-pyridinylmethyl)-4-piperidinyl]methyl]-2(S)-pyrrolidinecarboxamide, methanesulphonate] gave a Ki on human B2 receptor of 15 nM. For the same compound, at bradykinin B2 receptor (setting [1]), the Kb was 5.01 nM.
At human B2 receptor, `Cc1cc(-n2ccnc2)c2cccc(OCc3c(Cl)ccc(S(=O)(=O)N4CCC[C@H]4C(=O)NCC4CCN(CCC(=O)O)CC4)c3Cl)c2n1` [Example 115, 4-[[[[1-[[2,4-Dichloro-3-[[[4-(1H-imidazol-1-yl)-2-methyl-8-quinolinyl]oxy]-methyl]phenyl]sulphonyl]-2(S)-pyrrolidinyl]carbonyl]amino]methyl]-1-piperidinepropanoic acid, tartrate] came in with a Ki of 35 nM. For the same compound, on bradykinin B2 receptor, the Kb was 3.16 nM.
The corresponding values for `CNCCCNC(=O)[C@@H]1CCCN1S(=O)(=O)c1ccc(Cl)c(COc2cccc3c(-n4ccnc4)cc(C)nc23)c1Cl` [Example 123, 1-[[2,4-Dichloro-3-[[[4-(1H-imidazol-1-yl)-2-methyl-8-quinolinyl]oxy]methyl]-phenyl]sulphonyl]-N-[3-(methylamino)propyl]-2(S)-pyrrolidinecarboxamide, trifluoroacetate] are 8.1 nM and 3.98 nM.
At human B2 receptor, `Cc1cc(-n2cncn2)c2cccc(OCc3c(Cl)ccc(S(=O)(=O)N4CCC[C@H]4C(=O)NCC4CCN(CCO)CC4)c3Cl)c2n1` [Example 166, 1-[[2,4-Dichloro-3-[[[2-methyl-4-(1H-1,2,4-triazol-1-yl)-2-methyl-8-quinolinyl]oxy]methyl]phenyl]sulphonyl]-N-[[1-(2-(hydroxyethyl)-4-piperidinyl]methyl]-2(S)-pyrrolidinecarboxamide, methanesulphonate] gave a Ki of 5.8 nM. For the same compound, on bradykinin B2 receptor (setting [1]), the Kb is 6.31 nM.
As to `Cc1cc(-n2ccnc2)c2cccc(OCc3c(Cl)ccc(S(=O)(=O)N4CC[C@@H](O)C4)c3Cl)c2n1` [Example 170, 1-[[2,4-Dichloro-3-[[[4-(1H-imidazol-1-yl)-2-methyl-8-quinolinyl]oxy]methyl]-phenyl]sulphonyl]-3(R)-pyrrolidinol, tartrate], the affinity at human B2 receptor corresponds to a Ki of 7.8 nM. Moreover, the Kb on bradykinin B2 receptor was 10 nM.
Turning to `CC(=O)N[C@H]1CCN(S(=O)(=O)c2ccc(Cl)c(COc3cccc4c(-n5ccnc5)cc(C)nc34)c2Cl)C1` [Example 174, N-[1-[[2,4-Dichloro-3-[[[4-(1H-imidazol-1-yl)-2-methyl-8-quinolinyl]oxy]-methyl]phenyl]sulphonyl]-3(S)-pyrrolidinyl]acetamide], the affinity on human B2 receptor, expressed as Ki, was 8.8 nM. In addition, the Kb on bradykinin B2 receptor (setting [1]) was 7.94 nM.
